Reference: patent publication US7704976B2, “Use of N-acetyl-D-glucosamine for preparing medicines for urogenital tract infection's treatment and prevention” (Third Military Medical University, Chinese People's …, priority 2002, dated 2010)

System: lactobacillus
Assay: Liquid culture of lactobacillus
Assay type: cell-based

For `CC(=O)N[C@H]1C(O)O[C@H](CO)[C@@H](O)[C@@H]1O` (stereo partly drawn) [N-acetyl-D-glucosamine], which growth of lactobacillus is on record?
The growth of lactobacillus was “could promote the growth of lactobacillus”.
